Assay results taken from PubChem BioAssay AID330 (DTP/NCI, 2004).
Where “and” joins values, the source holds several entries; their conditions need not be identical. Equal values may be shown once. Toxic doses and inconclusive results are not listed. Peptide text beside a SMILES is read from it.

Tested on: P388 leukemia ip, CD2F1 mice, survival T/C
Assay: NCI In Vivo Anticancer Drug Screen. Data for tumor model P388 Leukemia (intraperitoneal) in CD2F1 (CDF1) mice
Conditions: endpoint: median survival time, higher = longer survival
Outline: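 Mice carrying the transplanted tumor received test compound or vehicle. Survival was recorded in each group, and the value is the treated-group measurement divided by that of the vehicle-treated control group.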

[1] = dose: 12.5 mg/kg/injection, schedule: Q01DX009 (ip), vehicle: saline with Tween-80
[2] = dose: 25.0 mg/kg/injection, schedule: Q01DX009 (ip), vehicle: saline with Tween-80
[3] = dose: 50.0 mg/kg/injection, schedule: Q01DX009 (ip), vehicle: saline with Tween-80
[4] = dose: 60.0 mg/kg/injection, schedule: Q01DX005 (ip), vehicle: saline with Tween-80
[5] = dose: 120.0 mg/kg/injection, schedule: Q01DX005 (ip), vehicle: saline with Tween-80
[6] = dose: 240.0 mg/kg/injection, schedule: Q01DX005 (ip), vehicle: saline with Tween-80
[7] = dose: 50.0 mg/kg/injection, schedule: Q01DX009 (ip), vehicle: saline
[8] = dose: 100.0 mg/kg/injection, schedule: Q01DX009 (ip), vehicle: saline
[9] = dose: 200.0 mg/kg/injection, schedule: Q01DX009 (ip), vehicle: saline
[10] = dose: 50.0 mg/kg/injection, schedule: Q01DX005 (ip), vehicle: saline
[11] = dose: 100.0 mg/kg/injection, schedule: Q01DX005 (ip), vehicle: saline
[12] = dose: 200.0 mg/kg/injection, schedule: Q01DX005 (ip), vehicle: saline
[13] = dose: 25.0 mg/kg/injection, schedule: Q01DX005 (ip), vehicle: saline with Tween-80
[14] = dose: 50.0 mg/kg/injection, schedule: Q01DX005 (ip), vehicle: saline with Tween-80
[15] = dose: 100.0 mg/kg/injection, schedule: Q01DX005 (ip), vehicle: saline with Tween-80
[16] = dose: 100.0 mg/kg/injection, schedule: Q01DX009 (ip), vehicle: Klucel (hydroxypropylcellulose) (HPC)
[17] = dose: 200.0 mg/kg/injection, schedule: Q01DX009 (ip), vehicle: Klucel (hydroxypropylcellulose) (HPC)
[18] = dose: 25.0 mg/kg/injection, schedule: Q01DX009 (ip), vehicle: saline
[19] = dose: 60.0 mg/kg/injection, schedule: Q01DX005 (ip), vehicle: Klucel (hydroxypropylcellulose) (HPC)
[20] = dose: 120.0 mg/kg/injection, schedule: Q01DX005 (ip), vehicle: Klucel (hydroxypropylcellulose) (HPC)
[21] = dose: 240.0 mg/kg/injection, schedule: Q01DX005 (ip), vehicle: Klucel (hydroxypropylcellulose) (HPC)
[22] = dose: 200.0 mg/kg/injection, schedule: Q01DX005 (ip), vehicle: saline with Tween-80
[23] = dose: 25.0 mg/kg/injection, schedule: Q01DX005 (ip), vehicle: Klucel (hydroxypropylcellulose) (HPC)
[24] = dose: 50.0 mg/kg/injection, schedule: Q01DX005 (ip), vehicle: Klucel (hydroxypropylcellulose) (HPC)
[25] = dose: 100.0 mg/kg/injection, schedule: Q01DX005 (ip), vehicle: Klucel (hydroxypropylcellulose) (HPC)
[26] = dose: 200.0 mg/kg/injection, schedule: Q01DX005 (ip), vehicle: Klucel (hydroxypropylcellulose) (HPC)

Compound: CC(C)OC(=O)Nc1ccccc1Cl
- T/C [1]: 104 % of control
- T/C [2]: 100 % of control
- T/C [3]: 109 % of control

Compound: Cc1cn(CCCn2cnc3c(=O)[nH]cnc32)c(=O)[nH]c1=O
- T/C [4]: 92 % of control
- T/C [5]: 101 % of control
- T/C [6]: 88 % of control

Compound: CCCCCCCCCCCCCOCC(=O)OC
- T/C [3]: 100 % of control
- T/C (dose: 100.0 mg/kg/injection, schedule: Q01DX009 (ip), vehicle: saline with Tween-80): 104 % of control
- T/C (dose: 200.0 mg/kg/injection, schedule: Q01DX009 (ip), vehicle: saline with Tween-80): 105 % of control

Compound: C=CCN=C(N)S[As]1c2ccccc2Oc2ccccc21
- T/C [7]: 100 % of control
- T/C [8]: 98 % of control
- T/C [9]: 102 % of control

Compound: C=C(CC1(O)C(C2COC(C)(C)O2)OC2OC(C)(C)OC21)C(=O)OCC (stereo not given)
- T/C [10]: 96 % of control
- T/C [11]: 98 % of control
- T/C [12]: 105 % of control

Compound: Cc1cc(C)n(-c2ccc(Cl)nn2)n1
- T/C [7]: 99 % of control
- T/C [8]: 95 % of control
- T/C [9]: 100 % of control

Compound: O=c1[nH]c(=O)c2cc3[nH]ncc3cc2[nH]1
- T/C [13]: 93 % of control
- T/C [14]: 93 % of control
- T/C [15]: 92 % of control

Compound: COc1ccc2c(c1)C1(C)c3cc(OC)ccc3OC1(C)O2 (stereo not given)
- T/C (dose: 50.0 mg/kg/injection, schedule: Q01DX009 (ip), vehicle: other): 103 % of control
- T/C (dose: 100.0 mg/kg/injection, schedule: Q01DX009 (ip), vehicle: other): 95 % of control
- T/C (dose: 200.0 mg/kg/injection, schedule: Q01DX009 (ip), vehicle: other): 103 % of control

Compound: CCc1cc(Cc2cc(CC)cc(C(C)(C)C)c2O)c(O)c(C(C)(C)C)c1
- T/C [16]: 107 % of control
- T/C [17]: 90 % of control
- T/C (dose: 400.0 mg/kg/injection, schedule: Q01DX009 (ip), vehicle: Klucel (hydroxypropylcellulose) (HPC)): 104 % of control and 90 % of control

Compound: O=c1[nH]c(CN2CCCCC2)ccc1O
- T/C [18]: 105 % of control and 109 % of control
- T/C [7]: 99 % of control and 105 % of control
- T/C [8]: 106 % of control and 109 % of control
- T/C [9]: 117 % of control and 118 % of control

Compound: C[CH2][Sn](=[O])[CH2]C
- T/C [18]: 154 % of control

Compound: CS/C(=C\c1ccc2ccccc2[n+]1C)N1CCN(CCCO)CC1
- T/C (dose: 15.0 mg/kg/injection, schedule: Q01DX005 (ip), vehicle: saline): 104 % of control
- T/C (dose: 30.0 mg/kg/injection, schedule: Q01DX005 (ip), vehicle: saline): 95 % of control
- T/C (dose: 60.0 mg/kg/injection, schedule: Q01DX005 (ip), vehicle: saline): 95 % of control

Compound: CCOC1OCN(C(C)(C)C)CC1(C)C (stereo not given)
- T/C [2]: 104 % of control
- T/C [3]: 120 % of control

Compound: O=C1C=CC2(CCCCC2)CC1
- T/C (dose: 25.0 mg/kg/injection, schedule: Q04DX003 (ip), vehicle: Klucel (hydroxypropylcellulose) (HPC)): 97 % of control
- T/C (dose: 50.0 mg/kg/injection, schedule: Q04DX003 (ip), vehicle: Klucel (hydroxypropylcellulose) (HPC)): 97 % of control
- T/C (dose: 100.0 mg/kg/injection, schedule: Q04DX003 (ip), vehicle: Klucel (hydroxypropylcellulose) (HPC)): 95 % of control

Compound: CCC(C)C(N)C(=O)NC(Cc1ccc(O)cc1)C(=O)O (stereo not drawn) (H-Ile-Tyr-OH; configuration not given here)
- T/C [19]: 97 % of control
- T/C [20]: 96 % of control
- T/C [21]: 99 % of control

Compound: CC(C)(C)c1cc(C(=O)O)c(SSc2ccccc2)c(C(=O)O)c1
- T/C (dose: 100.0 mg/kg/injection, schedule: Q04DX002 (ip), vehicle: Klucel (hydroxypropylcellulose) (HPC)): 105 % of control

Compound: O=C(O/N=C1\C2CCC(C2)C1Cl)c1ccc([N+](=O)[O-])cc1 (stereo not given)
- T/C [1]: 118 % of control
- T/C [2]: 122 % of control
- T/C [3]: 104 % of control

Compound: S=C1NCCNC(=S)SSSS1
- T/C [14]: 107 % of control
- T/C [15]: 114 % of control
- T/C [22]: 113 % of control

Compound: CC1C(=O)CC2CCC1N2C(=O)O (stereo not given)
- T/C [10]: 96 % of control
- T/C [11]: 96 % of control
- T/C [12]: 94 % of control

Compound: CCN(CC)C(=NC(C)(C)C)c1ccccc1
- T/C (dose: 3.12 mg/kg/injection, schedule: Q01DX009 (ip), vehicle: saline): 101 % of control and 93 % of control and 97 % of control
- T/C (dose: 6.25 mg/kg/injection, schedule: Q01DX005 (ip), vehicle: Klucel (hydroxypropylcellulose) (HPC)): 107 % of control
- T/C (dose: 6.25 mg/kg/injection, schedule: Q01DX009 (ip), vehicle: saline): 96 % of control and 97 % of control
- T/C (dose: 12.5 mg/kg/injection, schedule: Q01DX005 (ip), vehicle: Klucel (hydroxypropylcellulose) (HPC)): 100 % of control
- T/C [23]: 107 % of control
- T/C [7]: 99 % of control

Compound: CCCC(=O)C(CC)C(=O)CCC(=O)Nc1cccc([N+](=O)[O-])c1 (stereo not given)
- T/C [4]: 101 % of control
- T/C [5]: 104 % of control
- T/C [6]: 109 % of control

Compound: Cc1nc2ccccc2c2nnc(SCC(=O)N(Cc3ccccc3)c3ccccc3)n12
- T/C [24]: 99 % of control
- T/C [25]: 100 % of control
- T/C [26]: 102 % of control

Compound: CC1OC(c2ccc3c(c2O)C(=O)c2ccc(CC(C)(O)CC(=O)O)cc2C3=O)CC(O)C1O (stereo not given)
- T/C (dose: 12.5 mg/kg/injection, schedule: Q01DX005 (ip), vehicle: saline with Tween-80): 90 % of control
- T/C [13]: 93 % of control
- T/C [14]: 96 % of control
- T/C (dose: 100.0 mg/kg/injection, schedule: Q01DX005 (ip), vehicle: suspension in saline): 110 % of control
- T/C (dose: 200.0 mg/kg/injection, schedule: Q01DX005 (ip), vehicle: suspension in saline): 101 % of control

Compound: Cc1ccnc(NS(=O)(=O)c2ccc(N=Nc3c(O)n(-c4ccccc4)n(-c4ccccc4)c3=O)cc2)n1
- T/C (dose: 50.0 mg/kg/injection, schedule: Q01DX009 (ip), vehicle: Klucel (hydroxypropylcellulose) (HPC)): 86 % of control
- T/C [16]: 86 % of control
- T/C [17]: 91 % of control

Compound: CCCCCCCCCCN=Cc1c(O)c(O)c(CCC)c2cc(C)c(-c3c(C)cc4c(CCC)c(O)c(O)c(C=NCCCCCCCCCC)c4c3O)c(O)c12
- T/C [23]: 100 % of control
- T/C [24]: 95 % of control
- T/C [25]: 98 % of control
- T/C [26]: 95 % of control

Compound: CCCCC/C=N/N(C)C=O
- T/C (dose: 100.0 mg/kg/injection, schedule: Q04DX002 (ip), vehicle: saline): 103 % of control
- T/C (dose: 200.0 mg/kg/injection, schedule: Q04DX002 (ip), vehicle: saline): 103 % of control
- T/C (dose: 400.0 mg/kg/injection, schedule: Q04DX002 (ip), vehicle: saline): 100 % of control

Compound: COC(=O)C1(N2CCOCC2)CCC([C@@H](c2ccccc2)C(C)[N+](=O)[O-])C1 (stereo not given in full)
- T/C [19]: 100 % of control
- T/C [20]: 98 % of control
- T/C [21]: 99 % of control

Compound: CNC(=O)Oc1ccc(Sc2ccc(OC(=O)NC)c(Cl)c2)cc1Cl
- T/C (dose: 50.0 mg/kg/injection, schedule: Q01DX005 (ip), vehicle: saline + Tween-80 + alcohol): 106 % of control
- T/C [14]: 99 % of control and 118 % of control
- T/C (dose: 100.0 mg/kg/injection, schedule: Q01DX005 (ip), vehicle: saline + Tween-80 + alcohol): 119 % of control
- T/C [15]: 102 % of control and 118 % of control
- T/C (dose: 200.0 mg/kg/injection, schedule: Q01DX005 (ip), vehicle: saline + Tween-80 + alcohol): 114 % of control
- T/C [22]: 117 % of control
- T/C (dose: 400.0 mg/kg/injection, schedule: Q01DX005 (ip), vehicle: saline + Tween-80 + alcohol): 124 % of control
